Source: patent US11498885B2, “Use of pyrazole propargyl ethers as nitrification inhibitors” (BASF SE, priority 2018, dated 2022)

Key:
[1] = system: nitrification; assay: inhibition of nitrification in soil incubation test; type: cell-based, soil microbial biomass; conditions: 100 g soil, 10 mg ammoniumsulfate-N, 20° C., 14 days, best obtained NI value
Method: The compounds of the invention have been tested as follows in terms of the inhibition of nitrification: 100 g soil is filled into 500 ml plastic bottles (e.g. soil sampled from the field) and is moistened to 50% water holding capacity. The soil is incubated at 20° C. for two weeks to activate the microbial biomass. 1 ml test solution, containing the compound in the appropriate concentration (usually 0.3 or 1% of nitrogen N), or DMSO and 10 mg nitrogen in the form of ammoniumsulfate-N is added to the soil and everything mixed well. Bottles are capped but loosely to allow air exchange. The bottles are then incubated at 20° C. for 0 and 14 days. For analysis, 300 ml of a 1% K2SO4-solution is added to the bottle containing the soil and shaken for 2 hours in a horizontal shaker at 150 rpm. Then the whole solution is filtered through a filter (Macherey-Nagel Filter MN 807¼). Ammonium and nitrate content is then analyzed in the filtrate in an autoanalyzer at 550 nm (Merck, AA11). The inhibition (NI @ a specified concentration) is calculated as follows: [formula]

[2] = volatility of prior-art nitrification inhibitor; type: physicochemical; conditions: stated as disadvantageous for long-term applications

volatility [2] | SMILES | NI* @ 0.3% ([1]; compound at 0.3% of nitrogen N) | NI* @ 1% ([1]; compound at 1% of nitrogen N)
– | C#CCOc1ccn[nH]1 [Compound 1] | 60.6 | 74.7
high volatility | CCOc1cc(C)[nH]n1 [3-ethoxy-5-methylpyrazole] | – | –
